Where two headings read alike, the source gives them in different places.

As usually defined, the IC50 is the concentration at which inhibition is half-maximal.

The test system of this assay is Wnt. Nature of the assay: Wnt reporter screening assay: SP5 promoter (TCF/LEF) firefly luciferase in SW480 cells. It counts as cell-based. Conditions: SW480 colon cancer cells with SP5 promoter luciferase reporter, 24 hours after compound addition, normalized to DMSO, read-out: Wnt inhibition, IC50. An excerpt: Another screening assay for Wnt activity is described as follows. Reporter cell lines can be generated by stably transducing cells of cancer cell lines (e.g., colon cancer) with a lentiviral construct that include a wnt-responsive promoter driving expression of the firefly luciferase gene.
Lentiviral constructs can be made in which the SP5 promoter, a promoter having eight TCF/LEF binding sites derived from the SP5 promoter, is linked upstream of the firefly luciferase gene. The lentiviral constructs can also include a hygromycin resistance gene as a selectable marker. The SP5 promoter construct can be used to transduce SW480 cells, a colon cancer cell line having a mutated APC gene that generates a truncated APC protein, leading to de-regulated accumulation of β-catenin.
Cultured SW480 cells bearing a reporter construct can be distributed at approximately 10,000 cells per well into 384 well multiwell plates. Compounds from a small molecule compound library can then be added to the wells in half-log dilutions using a three micromolar top concentration. A series of control wells for each cell type receive only buffer and compound solvent. Twenty-four hours after the addition of compound, reporter activity for luciferases can be assayed, for example, by addition of the BrightGlo luminescence reagent (Promega) and the Victor3 plate reader (Perkin Elmer). Readings can be normalized to DMSO only treated cells, and normalized activities can then be used in the IC50 calculations.
(Reporter assays use an easily measured gene product as a stand-in for the process of interest.)

`O=C(c1ccc2[nH]nc(-c3nc4ccccc4[nH]3)c2c1)N1CCOCC1` [Compound 23, (3-(1H-benzo[d]imidazol-2-yl)-1H-indazol-5-yl)(morpholino) methanone]: the IC50 (Homo sapiens) was more than 10000 nM.

With `CCNCc1cncc(-c2ccc3[nH]nc(-c4nc5c(-c6ccc(C)cc6)cccc5[nH]4)c3c2)c1C` [Compound 41, N-((4-methyl-5-(3-(4-p-tolyl-1H-benzo[d]imidazol-2-yl)-1H-indazol-5-yl)pyridin-3-yl)methyl)ethanamine], for the setting “Homo sapiens”, the IC50 is 330 to 470 nM.

`O=C(NC1CCN(Cc2ccccc2)CC1)c1ccc2[nH]nc(-c3nc4ccccc4[nH]3)c2c1` [Compound 19, 3-(1H-benzo[d]imidazol-2-yl)-N-(1-benzylpiperidin-4-yl)-1H-indazole-5-carboxamide]: the IC50 (Homo sapiens) fell in the range of 330 to 400 nM.

Take `COc1ccc(S(=O)(=O)N2CCCC(NC(=O)c3ccc4[nH]nc(-c5nc6ccccc6[nH]5)c4c3)C2)cc1` (stereo not shown) [Compound 11]: for the setting “Homo sapiens”, the IC50 is 1300 nM.

Take `O=C(O)c1ccc2[nH]nc(-c3nc4ccccc4[nH]3)c2c1` [Compound 29, 3-(1H-benzimidazol-2-yl)-1H-indazole-5-carboxylic acid]: the 50% inhibitory concentration (IC50) (Homo sapiens) is more than 10000 nM.

With `CCNCc1cncc(-c2ccc3[nH]nc(-c4nc5c(N6CCCCC6)cccc5[nH]4)c3c2)c1C` [Compound 35, N-((4-methyl-5-(3-(4-(piperidin-1-yl)-1H-benzo[d]imidazol-2-yl)-1H-indazol-5-yl)pyridin-3-yl)methyl)ethanamine], for the setting “Homo sapiens”, the IC50 is 147 to 243 nM.

Consider `O=C(NC1Cc2ccccc2C1)c1ccc2[nH]nc(-c3nc4ccccc4[nH]3)c2c1` [Compound 4], for which the IC50 (Homo sapiens) was 600 nM.

Turning to `Cc1ccc(CN2CCN(C(=O)c3ccc4[nH]nc(-c5nc6ccccc6[nH]5)c4c3)CC2)cc1` [Compound 21, (3-(1H-benzo[d]imidazol-2-yl)-1H-indazol-5-yl)(4-(4-methylbenzyl)piperazin-1-yl)methanone], the half-maximal inhibitory concentration (IC50) (Homo sapiens) came to 5300 nM.

On to `N#Cc1ccc2[nH]nc(-c3nc4ccccc4[nH]3)c2c1` [Compound 27, 3-(1H-benzo[d]imidazol-2-yl)-1H-indazole-5-carbonitrile], for which the IC50 (Homo sapiens) was more than 10000 nM.

Take `CN(C)C(=O)c1ccc2[nH]nc(-c3nc4ccccc4[nH]3)c2c1` [Compound 30, 3-(1H-benzo[d]imidazol-2-yl)-N,N-dimethyl-1H-indazole-5-carboxamide]: the IC50 (Homo sapiens) was determined as 2000 nM.

Regarding `CCNCc1cncc(-c2ccc3[nH]nc(-c4nc5c(-c6cccc(C)c6)cccc5[nH]4)c3c2)c1C` [Compound 40, N-((4-methyl-5-(3-(4-m-tolyl-1H-benzo[d]imidazol-2-yl)-1H-indazol-5-yl)pyridin-3-yl)methyl)ethanamine], the IC50 (Homo sapiens) lay in the range of 670 to 860 nM.

Take `CCC(CC)NC(=O)c1ccc2[nH]nc(-c3nc4ccccc4[nH]3)c2c1` [Compound 1, 3-(1H-benzo[d]imidazol-2-yl)-N-(pentan-3-yl)-1H-indazole-5-carboxamide]: the IC50 (Homo sapiens) fell in the range of 200 to 310 nM.

For the compound `Cc1cc(C)cc(-c2ccc3c(NC(=O)NCC4CC4)n[nH]c3c2)c1` [Compound 48], where the note is “Homo sapiens”, the 50% inhibitory concentration (IC50) came to 390 nM.

Take `CCNCc1cncc(-c2ccc3[nH]nc(-c4nc5c(N6CCCC6)cccc5[nH]4)c3c2)c1C` [Compound 36, N-((4-methyl-5-(3-(4-(pyrrolidin-1-yl)-1H-benzo[d]imidazol-2-yl)-1H-indazol-5-yl)pyridin-3-yl)methyl)ethanamine]: where the note is “Homo sapiens”, the IC50 worked out at 750 nM.

`Cc1cn(-c2cccc3[nH]c(-c4n[nH]c5ccc(-c6cnccc6C)cc45)nc23)cn1` [Compound 34, 3-(4-(4-methyl-1H-imidazol-1-yl)-1H-benzo[d]imidazol-2-yl)-5-(4-methylpyridin-3-yl)-1H-indazole]: the IC50 (Homo sapiens) is 10 to 46 nM.

For the compound `O=C(c1ccc2[nH]nc(-c3nc4ccccc4[nH]3)c2c1)N1CCCC1c1ccccc1` (stereo not shown) [Compound 16], where the note is “Homo sapiens”, the IC50 was 3100 nM.

Regarding `Cc1ccccc1C1CCCN1C(=O)c1ccc2[nH]nc(-c3nc4ccccc4[nH]3)c2c1` (stereo not shown) [Compound 15], the IC50 (Homo sapiens) is 3000 nM.

Take `CCNCc1cncc(-c2ccc3[nH]nc(-c4nc5c(-c6ccccc6C)cccc5[nH]4)c3c2)c1C` [Compound 42, N-((4-methyl-5-(3-(4-o-tolyl-1H-benzo[d]imidazol-2-yl)-1H-indazol-5-yl)pyridin-3-yl)methyl)ethanamine]: the 50% inhibitory concentration (IC50) (Homo sapiens) was 2500 to 3600 nM.

`O=C(NCc1ccccc1)c1cncc(-c2ccc3[nH]nc(-c4nc5ccccc5[nH]4)c3c2)c1` [Compound 45, 5-(3-(1H-benzo[d]imidazol-2-yl)-1H-indazol-5-yl)-N-benzylnicotinamide]: the IC50 (Homo sapiens) fell in the range of 1230 to 2280 nM.

Consider “N-ethyl-4-methyl-5-(3-(4-(4-methyl-1H-imidazol-1-yl)-1H-benzo[d]imidazol-2-yl)-1H-indazol-5-yl)nicotinamide [Compound 43]”, for which the IC50 lay within 77 to 96 nM.

Regarding `CS(=O)(=O)N1CCCC(CNC(=O)c2ccc3[nH]nc(-c4nc5ccccc5[nH]4)c3c2)C1` (stereo not shown) [Compound 13], the IC50 (Homo sapiens) came to 1800 nM.

As for `Cc1ccccc1O[C@@H]1CCN(C(=O)c2ccc3[nH]nc(-c4nc5ccccc5[nH]4)c3c2)C1` [Compound 18], the IC50 (Homo sapiens) came to 1900 nM.

With `CC(C)CC(=O)N1CC2CC1CN2C(=O)c1ccc2[nH]nc(-c3nc4ccccc4[nH]3)c2c1` (stereo not shown) [Compound 8], the IC50 (Homo sapiens) was found to be 930 nM.

Regarding `CCNCc1cncc(-c2ccc3[nH]nc(-c4nc5ccccc5[nH]4)c3c2)c1` [Compound 38, N-((5-(3-(1H-benzo[d]imidazol-2-yl)-1H-indazol-5-yl)pyridin-3-yl)methyl)ethanamine], the IC50 (Homo sapiens) lay in the range of 124 to 235 nM.

For the compound `CCNCc1cncc(-c2ccc3[nH]nc(-c4nc5c(-c6cccnc6)cccc5[nH]4)c3c2)c1C` [Compound 37, N-((4-methyl-5-(3-(4-(pyridin-3-yl)-1H-benzo[d]imidazol-2-yl)-1H-indazol-5-yl)pyridin-3-yl)methyl)ethanamine], the IC50 (Homo sapiens) was 200 to 240 nM.

As to `CC[C@H](C)[C@@H](CO)NC(=O)c1ccc2[nH]nc(-c3nc4ccccc4[nH]3)c2c1` [Compound 17], under “Homo sapiens”, the IC50 was found to be 750 nM.

Take `CN1CCCN(C(=O)c2ccc3[nH]nc(-c4nc5ccccc5[nH]4)c3c2)CC1` [Compound 22, (3-(1H-benzo[d]imidazol-2-yl)-1H-indazol-5-yl)(4-methyl-1,4-diazepan-1-yl)methanone]: the IC50 (Homo sapiens) was 1850 nM.

As for `CN1CCCCC1CNC(=O)c1ccc2[nH]nc(-c3nc4ccccc4[nH]3)c2c1` (stereo not shown) [Compound 5], the IC50 (Homo sapiens) was 630 nM.

On to `CCNC(=O)c1cncc(-c2ccc3[nH]nc(-c4nc5ccccc5[nH]4)c3c2)c1` [Compound 44, 5-(3-(1H-benzo[d]imidazol-2-yl)-1H-indazol-5-yl)-N-ethyl nicotinamide], for which the IC50 (Homo sapiens) fell in the range of 960 to 1560 nM.

Turning to `CCNCc1cncc(-c2ccc3[nH]nc(-c4nc5ccc(COC)cc5[nH]4)c3c2)c1C` [Compound 33], the IC50 (Homo sapiens) turned out to be 680 nM.

`CCNCc1cncc(-c2ccc3[nH]nc(-c4nc5c(-n6cnc(C)c6)cccc5[nH]4)c3c2)c1C` [Compound 32, N-((4-methyl-5-(3-(4-(4-methyl-1H-imidazol-1-yl)-1H-benzo[d]imidazol-2-yl)-1H-indazol-5-yl)pyridin-3-yl)methyl)ethanamine]: the IC50 (Homo sapiens) lay within 40 to 63 nM.

Consider `O=C(NC1CCCN(S(=O)(=O)c2ccccc2F)C1)c1ccc2[nH]nc(-c3nc4ccccc4[nH]3)c2c1` (stereo not shown) [Compound 2], for which the half-inhibitory concentration (IC50) (Homo sapiens) was found to be 500 nM.

Regarding `CN1CCN(C(=O)c2ccc3[nH]nc(-c4nc5ccccc5[nH]4)c3c2)CC1` [Compound 25, [3-(1H-benzimidazol-2-yl)-1H-indazole-5-yl]-(4-methyl-piperazin-1-yl)-methanone], the IC50 (Homo sapiens) was more than 10000 nM.

Consider `CS(=O)(=O)N1CCCC(NC(=O)c2ccc3[nH]nc(-c4nc5ccccc5[nH]4)c3c2)C1` (stereo not shown) [Compound 7], for which the IC50 (Homo sapiens) worked out at 800 nM.

For `O=C(c1ccc2[nH]nc(-c3nc4ccccc4[nH]3)c2c1)N1CCSCC1` [Compound 24, (3-(1H-benzo[d]imidazol-2-yl)-1H-indazol-5-yl)(thiomorpholino)methanone], the 50% inhibitory concentration (IC50) (Homo sapiens) turned out to be 8000 nM.

For `O=C(NC1CCc2ccccc21)c1ccc2[nH]nc(-c3nc4ccccc4[nH]3)c2c1` (stereo not shown) [Compound 10], under “Homo sapiens”, the IC50 is 1000 nM.

As for `O=C(NCC1(O)CCCCC1)c1ccc2[nH]nc(-c3nc4ccccc4[nH]3)c2c1` [Compound 12], the IC50 (Homo sapiens) came to 1600 nM.

`O=C(NC1CCCN(S(=O)(=O)c2cccc(F)c2)C1)c1ccc2[nH]nc(-c3nc4ccccc4[nH]3)c2c1` (stereo not shown) [Compound 9]: the 50% inhibitory concentration (IC50) (Homo sapiens) was found to be 1000 nM.

As for `Cc1ccc(-n2nc(C(N)=O)c3ccc4[nH]ncc4c32)cc1` [Compound 123], the half-maximal inhibitory concentration (IC50) (Homo sapiens) is 1220 nM.

Consider `NC(=O)c1ccc2[nH]nc(-c3nc4ccccc4[nH]3)c2c1` [Compound 28, 3-(1H-benzo[d]imidazol-2-yl)-1H-indazole-5-carboxamide], for which the 50% inhibitory concentration (IC50) (Homo sapiens) was 1000 nM.

Consider `O=C(c1ccc2[nH]nc(-c3nc4ccccc4[nH]3)c2c1)N1CCCCC1` [Compound 26, (3-(1H-benzo[d]imidazol-2-yl)-1H-indazol-5-yl)(piperidin-1-yl)methanone], for which the 50% inhibitory concentration (IC50) (Homo sapiens) was more than 10000 nM.

As for `CCNCc1cncc(-c2ccc3[nH]nc(-c4nc5ccccc5[nH]4)c3c2)c1C` [Compound 31, N-((5-(3-(1H-benzo[d]imidazol-2-yl)-1H-indazol-5-yl)-4-methylpyridin-3-yl)methyl)ethanamine], under “Homo sapiens”, the half-maximal inhibitory concentration (IC50) is 243 nM.

Take `Cc1ccccc1OC1CCN(C(=O)c2ccc3[nH]nc(-c4nc5ccccc5[nH]4)c3c2)C1` (stereo not shown) [Compound 14]: the IC50 (Homo sapiens) amounted to 1900 nM.

The record behind these values is patent publication US20110034441A1, “INDAZOLES AS WNT/B-CATENIN SIGNALING PATHWAY INHIBITORS AND THERAPEUTIC USES THEREOF” (EPITHERIX, LLC, priority 2009, published 2011).
